The values below come from ChEMBL document CHEMBL1142426, “Design and synthesis of macrocyclic peptidyl hydroxamates as peptide deformylase inhibitors” (2008).

In brackets after ≈: the same amount, converted by molar mass. Activity calls are given as the source filed them.

The subject of one experiment is Bacillus subtilis. Kind of experiment: Antimicrobial activity against Bacillus subtilis. The experiment is classed as functional.
The target of experiment [1] is T1, Peptide deformylase (Escherichia coli) (UniProt Q9JN24).
T1 sequence (whole entry): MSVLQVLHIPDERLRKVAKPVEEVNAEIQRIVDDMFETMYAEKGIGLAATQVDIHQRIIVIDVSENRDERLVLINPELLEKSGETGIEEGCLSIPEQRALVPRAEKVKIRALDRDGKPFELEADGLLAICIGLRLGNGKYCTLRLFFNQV
Put plainly: Slow-binding inhibition of cobalt-substituted Escherichia coli PDF.

Another experiment relates to Escherichia coli. Kind of experiment: Antimicrobial activity against Escherichia coli. Format: functional.
The target of experiment [2] is T1, Peptide deformylase (Escherichia coli). Kind of experiment: Inhibition of cobalt-substituted Escherichia coli PDF.

As for `CC(C)(C)[C@@H]1NC(=O)[C@@H](CC(=O)NO)CCCCCCCCCNC1=O`, the MIC was 2 µg/mL (≈ 5.41 µM) in the experiment on Bacillus subtilis and greater than 24 µg/mL in the experiment on Escherichia coli. In addition, the Ki in experiment [1] came out at 4.4 nM; in experiment [2], 210 nM.
The molecule `O=C(C[C@H]1CCCCCCCCCNC(=O)[C@@H]2CCCN2C1=O)NO` registered an MIC in the experiment with Bacillus subtilis greater than 24 µg/mL. Moreover, the Ki in experiment [1] turned out to be 1400 nM; in experiment [2], 16000 nM. Further, in the experiment on Escherichia coli, the result was inactive.
Regarding `CC(C)(C)[C@@H]1NC(=O)[C@@H](CC(=O)NO)NC(=O)CCCCCCCCCNC1=O`, the Ki in experiment [2] was greater than 20000 nM.
Consider `CC(C)(C)[C@@H]1NC(=O)[C@@H](CN(O)C=O)CCCCCCCCCNC1=O`, for which the Ki is 0.33 nM in experiment [1] and 109 nM in experiment [2].

What is called MIC is the smallest concentration in the dilution series that meets the test's criterion for growth inhibition. Higher therefore signals a need for much substance. One may read the Ki as a dissociation constant, usually derived from enzyme kinetics or from competition with a known ligand. Higher therefore signals a looser hold on the target.
